Measurements published in patent US6372209B1, “Vaginal lactobacillus medicant” (Gyne Logix, Inc., priority 1997, dated 2002).

Columns and labels:
women = assay: Pooled clinical trials with the CTV-05 suppository (Examples 5-7); format: in vivo, human
Text: The studies presented in Examples 5 6, and 7 have shown that the Lactobacilli of the present invention can be used in a suppository to recolonize the vagina with Lactobacilli. Over fifty women have been included in clinical trials with the Lactobacillus crispatus CTV-05 suppository. […] Furthermore, the present inventors have developed fingerprinting methods which allow the identification of the suppository strain of L. crispatus in human trials.

[1] = Cell to preservation matrix ratio: viability counts pre- and post-dry; format: physicochemical; conditions: 30 microliter aliquots
Experimental: Experiments were conducted to determine the preservative capacity of the suspending medium by addition of different amounts of cells of strain CTV-05 per volume of medium. The Lactobacilli were grown anaerobically on 2 inch squares on MRS agar plates. A 2-inch square of agar is the equivalent of 10 ml of broth. The anticipated yield per plate was 2×10^9 CFUs. Inoculated matrix was preserved in aliquots of 30 microliters.

[2] = system: Candida albicans ATCC 14053 (human blood isolate); assay: Agar overlay zone of inhibition of yeast growth; format: cell-based
Experimental: (§1) MRS agar was allowed to harden at a 5 mm slant. Lactobacillus crispatus CTV-05 was streaked across the diameter of the plate and was grown for 24, 48 or 72 hours under both anaerobic and ambient atmospheres. Control strains of Lactobacillus jensenii CTV-01, Lactobacillus crispatus CTV-02, Lactobacillus crispatus CTV-03, and Lactobacillus crispatus CTV-04 were grown in the same way. The plates were overlayed with YM agar with 10 mM CNNaS (sodium thiocyanate, previously reported to be an inhibitor of yeast growth) or without CNNaS. The agar overlays were inoculated with one of two strains of Candida albicans ATCC 60193 (cervical isolate) or Candida albicans ATCC 14053 (human blood isolate). Zones of inhibition were measured. […] Therefore, Lactobacillus crispatus CTV-05 inhibits yeast growth in vitro.

[3] = system: Candida albicans ATCC 60193 (cervical isolate); assay: Agar overlay zone of inhibition of yeast growth; format: cell-based
Experimental: as §1

[4] = Accelerated shelf-life of the air-dried suppository at 35, 45 and 55° C.; format: physicochemical; conditions: for loss of viability: over about 2.3 days
Experimental: Strain CTV-05 was tested in a gelatin capsule suppository during storage at 55° C., 45° C., 35° C. and at room and refrigeration temperatures. […] Between the fourth and ninth weeks counts dropped to 9.8×10^7 per suppository and have remained at 10^7 for 25 months.
At 35° C., the product lost less than 1 log of viability over about 2.3 days. At 45° C., the product lost about 2 logs of viability over about 2.3 days. At 55° C., the product lost viability rapidly within 0.5 days.

normal, healthy women = assay: Open study: vaginal colonization of healthy women by suppository; format: in vivo, human
Text: In this open study, a Lactobacillus suppository containing approximately 10^9 viable, H2O2-producing Lactobacillus crispatus CTV-05 was used by 9 women twice daily for three days. All 9 women were free of genital infection at enrollment, and 8 of the 9 women had endogenous Lactobacilli at enrollment.
Since many women are colonized vaginally and rectally by Lactobacilli, the technique, Repetitive Sequence Polymerase Chain Reaction (Rep PCR), was used to “fingerprint” the suppository strain of L. crispatus and thereby distinguish the suppository strain from endogenous strains of Lactobacilli.

[5] = Stability of viability: room temperature and refrigerated storage (plate count, MRS agar); format: physicochemical
Experimental: (1.5) Stability of viability: Samples of each evaluated strain were retained for shelf-life studies at room temperature and refrigerated storage. At selected time intervals, samples were tested for the number of colony-forming-units using the Plate Count method with MRS agar.
Strain CTV-05 was tested in a gelatin capsule suppository during storage at 55° C., 45° C., 35° C. and at room and refrigeration temperatures. […] Between the fourth and ninth weeks counts dropped to 9.8×10^7 per suppository and have remained at 10^7 for 25 months. […]

[6] = 4 plates/5 ml matrix, 24 hr. Growth Period
[7] = 4 plates/5 ml matrix, 48 hr. Growth Period
[8] = 6 plates/5 ml matrix, 24 hr. Growth Period
[9] = 6 plates/5 ml matrix, 48 hr. Growth Period
[10] = 8 plates/5 ml matrix, 24 hr. Growth Period
[11] = 8 plates/5 ml matrix, 48 hr. Growth Period
[12] = 10 plates/5 ml matrix, 24 hr. Growth Period
[13] = 10 plates/5 ml matrix, 48 hr. Growth Period
[14] = Lactobacillus grown anaerobically for 24, 48 or 72 hours
[15] = Lactobacillus grown under ambient atmosphere, with or without CNNaS

For Lactobacillus crispatus CTV-05, which “women with normal vaginal flora remaining colonized” value (women; after one month, gelatin capsule inserted into the vagina) is on record?
The value was “greater than 80%”.

What about the “side effects associated with use” value (women; over fifty women in clinical trials) of the same substance?
The value was “None of the women who received the suppository had any side effects”.

What about the “Actual Yields, Post-dry” value [1, 6] of the same substance?
Its value is 1.1 × 10^7 CFUs.

What about the “Actual Yields, Pre-dry” value [1, 6] of the same substance?
The value was 7.9 × 10^7 CFUs.

What about the “Actual Yields, Post-dry” value [1, 7] of the same substance?
Its value is 6.1 × 10^8 CFUs.

And the “Actual Yields, Pre-dry” value [1, 7]?
The value was 6.0 × 10^8 CFUs.

What about the “Actual Yields, Post-dry” value [1, 8] of the same substance?
Its value is 2.1 × 10^7 CFUs.

And the “Actual Yields, Pre-dry” value [1, 8]?
The value was 1.9 × 10^8 CFUs.

And the “Actual Yields, Post-dry” value [1, 9]?
Its value is 3.0 × 10^8 CFUs.

And the “Actual Yields, Pre-dry” value [1, 9]?
Its value is 7.8 × 10^8 CFUs.

And the “Actual Yields, Post-dry” value [1, 10]?
Its value is 3.6 × 10^7 CFUs.

And the “Actual Yields, Pre-dry” value [1, 10]?
Its value is 6.9 × 10^7 CFUs.

What about the “Actual Yields, Post-dry” value [1, 11] of the same substance?
Its value is 4.3 × 10^8 CFUs.

What about the “Actual Yields, Pre-dry” value [1, 11] of the same substance?
Its value is 9.8 × 10^8 CFUs.

What about the “Actual Yields, Post-dry” value [1, 12] of the same substance?
Its value is 4.0 × 10^7 CFUs.

And the “Actual Yields, Pre-dry” value [1, 12]?
The value was 6.7 × 10^7 CFUs.

What about the “Actual Yields, Post-dry” value [1, 13] of the same substance?
Its value is 4.1 × 10^8 CFUs.

What about the “Actual Yields, Pre-dry” value [1, 13] of the same substance?
Its value is 1.5 × 10^8 CFUs.

What about the “inhibition of Candida growth” value [2, 14] of the same substance?
Its value is “effectively inhibited growth”.

What about the “inhibition of Candida growth” value [2, 15] of the same substance?
The value was “unable to inhibit”.

And the “inhibition of Candida growth” value [3, 14]?
Its value is “effectively inhibited growth”.

What about the “inhibition of Candida growth” value [3, 15] of the same substance?
The value was “unable to inhibit”.

What about the “Zone of Inhibition (in millimeters)” value ([3]; Organism Growth Time Period 48 hours) of the same substance?
Its value is 70 to 0 mm.

And the “Zone of Inhibition (in millimeters)” value ([3]; Organism Growth Time Period 72 hours)?
The value was 70 to 0 mm.

What about the loss of viability ([4]; 35° C.) of the same substance?
The loss of viability was “less than 1 log”.

What about the loss of viability ([4]; 45° C.) of the same substance?
Its loss of viability is “about 2 logs”.

What about the “time within which viability was rapidly lost” value ([4]; 55° C.) of the same substance?
The value was ≤ 0.5 days.

What about the “inflammation, microscopically (white blood cells on vaginal smear)” value (normal, healthy women; 9 women) of the same substance?
The value was “None of the women had evidence of inflammation”.

And the side effects (normal, healthy women; 9 women)?
Its side effects is “none complained of side effects”.

What about the “women colonized by the suppository strain” value (normal, healthy women; 9 women, approximately 10^9 viable cells twice daily for three days, 2-3 days after last capsule) of the same substance?
Its value is “all of the women were colonized”.

What about the women remaining colonized (normal, healthy women; 9 women, at 1 month) of the same substance?
Its women remaining colonized is 8 of 9.

And the “vaginal colonization, Patient 103” value (normal, healthy women; four weeks later)?
The value was “still colonized with CTV-05”.

What about the “vaginal colonization, Patient 102” value (normal, healthy women; one month visit) of the same substance?
The value was “still colonized by L. crispatus CTV-05”.

What about the “vaginal colonization, Patient 103” value (normal, healthy women; one week after use twice daily for 3 days) of the same substance?
The value was “colonized by CTV-05 as well as by another strain of Lactobacilli”.

What about the “vaginal colonization, Patient 102” value (normal, healthy women; one week visit after use of the suppository) of the same substance?
The value was “colonized by three strains of Lactobacilli, which included (1) the suppository strain”.

And the “vaginal colonization, Patient 102” value (normal, healthy women; one year after enrollment)?
The value was “colonized exclusively by the suppository strain”.

What about the “CFUs per Suppository” value ([5]; Refrigerated (2-8° C.), 1 month) of the same substance?
Its value is 5.20E+08 CFUs per Suppository.

And the “CFUs per Suppository” value ([5]; Refrigerated (2-8° C.), 2 months)?
Its value is 2.20E+08 CFUs per Suppository.

And the “CFUs per Suppository” value ([5]; Refrigerated (2-8° C.), 3 months)?
The value was 2.30E+08 CFUs per Suppository.

What about the “CFUs per Suppository” value ([5]; Refrigerated (2-8° C.), 5 months) of the same substance?
The value was 2.80E+08 CFUs per Suppository.

What about the “CFUs per Suppository” value ([5]; Refrigerated (2-8° C.), 6 months) of the same substance?
Its value is 1.70E+08 CFUs per Suppository.

And the “CFUs per Suppository” value ([5]; Refrigerated (2-8° C.), 7 months)?
The value was 2.60E+08 CFUs per Suppository.

And the “CFUs per Suppository” value ([5]; Refrigerated (2-8° C.), 9 months)?
Its value is 3.10E+08 CFUs per Suppository.

And the “CFUs per Suppository” value ([5]; Refrigerated (2-8° C.), 11 months)?
The value was 2.50E+08 CFUs per Suppository.

What about the “CFUs per Suppository” value ([5]; Refrigerated (2-8° C.), 15 months) of the same substance?
The value was 9.20E+07 CFUs per Suppository.

And the “CFUs per Suppository” value ([5]; Refrigerated (2-8° C.), 18 months)?
Its value is 1.50E+07 CFUs per Suppository.

What about the “CFUs per Suppository” value ([5]; Refrigerated (2-8° C.), 25 months) of the same substance?
Its value is 5.00E+08 CFUs per Suppository.

And the “CFUs per Suppository” value ([5]; Room Temperature (25° C. ± 5° C.), 1 month)?
The value was 1.30E+08 CFUs per Suppository.

What about the “CFUs per Suppository” value ([5]; Room Temperature (25° C. ± 5° C.), 1 week) of the same substance?
Its value is 3.80E+08 CFUs per Suppository.

What about the “CFUs per Suppository” value ([5]; Room Temperature (25° C. ± 5° C.), 2 months) of the same substance?
Its value is 9.80E+07 CFUs per Suppository.

What about the “CFUs per Suppository” value ([5]; Room Temperature (25° C. ± 5° C.), 2 weeks) of the same substance?
Its value is 3.20E+08 CFUs per Suppository.

What about the “CFUs per Suppository” value ([5]; Room Temperature (25° C. ± 5° C.), 3 months) of the same substance?
Its value is 1.83E+07 CFUs per Suppository.

What about the “CFUs per Suppository” value ([5]; Room Temperature (25° C. ± 5° C.), 3 weeks) of the same substance?
The value was 3.05E+08 CFUs per Suppository.

What about the “CFUs per Suppository” value ([5]; Room Temperature (25° C. ± 5° C.), 4 months) of the same substance?
The value was 3.25E+07 CFUs per Suppository.

And the “CFUs per Suppository” value ([5]; Room Temperature (25° C. ± 5° C.), 5 months)?
The value was 3.80E+07 CFUs per Suppository.

What about the “CFUs per Suppository” value ([5]; Room Temperature (25° C. ± 5° C.), 6 months) of the same substance?
The value was 1.70E+07 CFUs per Suppository.

What about the “CFUs per Suppository” value ([5]; Room Temperature (25° C. ± 5° C.), 7 months) of the same substance?
The value was 1.60E+07 CFUs per Suppository.

And the “CFUs per Suppository” value ([5]; Room Temperature (25° C. ± 5° C.), 9 months)?
The value was 4.70E+07 CFUs per Suppository.

What about the “CFUs per Suppository” value ([5]; Room Temperature (25° C. ± 5° C.), 11 months) of the same substance?
The value was 2.80E+07 CFUs per Suppository.

What about the “CFUs per Suppository” value ([5]; Room Temperature (25° C. ± 5° C.), 15 months) of the same substance?
Its value is 2.20E+06 CFUs per Suppository.

What about the “CFUs per Suppository” value ([5]; Room Temperature (25° C. ± 5° C.), 18 months) of the same substance?
Its value is 4.70E+06 CFUs per Suppository.

And the “CFUs per Suppository” value ([5]; Room Temperature (25° C. ± 5° C.), 25 months)?
Its value is 1.60E+07 CFUs per Suppository.

And the “colony counts, stable level” value ([5]; refrigerated product, for 5 months)?
Its value is 10^8 per suppository.

What about the “colony counts after drop” value ([5]; room temperature, between the fourth and ninth weeks) of the same substance?
Its value is 9.8×10^7 per suppository.

What about the “colony counts, stable level” value ([5]; room temperature, for 4 weeks) of the same substance?
The value was 10^8 per suppository.

And the “colony counts, level maintained” value ([5]; room temperature, for 25 months)?
The value was 10^7.

And the “CFU value at which product remained stable after drop from 10^8 at 2 months” value ([5]; stored at room temperature (25° C. +5° C.), for 25 months)?
The value was 10^7 CFU.

And the “CFU value at which product was stable” value ([5]; stored refrigerated (2-8° C.), for 25 months)?
The value was 10^8 CFU.
